Experimental data published in article PMC10935098 (Molecules, 2024).
Values after ≈ are worked out from the molar mass of the structure shown. Where a SMILES comes first, the peptide text is derived from it. Bridges are numbered along the chain shown (N, C = ends). [ ]: non-standard residue; d: D form.

Columns and labels:
Candida tropicalis [1] = assay type: cell-based
Bacillus subtilis = assay type: cell-based
Candida tropicalis [2] = assay type: cell-based; remark: listed apart in the source
[3] = test system: Candida tropicalis (BNCC340288); conditions: BNCC340288, 24 h
[4] = test system: Candida parapsilosis (BNCC336015); conditions: BNCC336015, 24 h
[5] = test system: Bacillus subtilis (BNCC109047); conditions: BNCC109047, 24 h
[6] = test system: Escherichia coli (BNCC336902); conditions: BNCC336902, 24 h
trypsin = conditions: pH 6.8
[7] = test system: erythrocytes of C57BL/6 mice; conditions: 128 µM
[8] = test system: human hepatocytes (THLE-3)
C57BL/6 mice = conditions: mouse, ip, 10 mg/kg
in vitro = conditions: serum

Structure (SMILES): CC(C)C[C@@H]1NC(=O)[C@@H]2CSSC[C@@H](C(N)=O)NC(=O)[C@@H](CCCNC(=N)N)NC(=O)[C@H](CC(C)C)NC(=O)[C@@H](CCCCN)NC(=O)[C@H](CC(C)C)NC(=O)[C@@H](CCCNC(=N)N)NC(=O)[C@H](CSSC[C@H](NC(=O)[C@@H](N)CC(C)C)C(=O)N2)NC(=O)[C@@H](CCCNC(=N)N)NC1=O [Pep 8] (H-LCCL[dR]C[dR]L[dK]L[dR]C-NH2; disulfide 2-6, 3-12)
- Effect on growth of Candida tropicalis (growth curve) (Candida tropicalis [1]): inhibitory effects
- Effect on growth of Bacillus subtilis (growth curve) (Bacillus subtilis): inhibitory effects
- Bactericidal effect on Candida tropicalis (Candida tropicalis [2]): significant bactericidal effect
- Fungal counts after 60 min (Candida tropicalis [2]): 1 × 10^3 cfu/mL
- Reduction of fungal counts (Candida tropicalis [2]): over 1000 fold
- MIC, C. tropical [3]: 8 µM (≈ 11.8 µg/mL)
- MIC, C. parapsilosis [4]: 8 µM (≈ 11.8 µg/mL)
- MIC, B. subtilis [5]: 16 µM (≈ 23.6 µg/mL)
- MIC, E. coli [6]: 128 µM (≈ 189 µg/mL)
- Stability in SIF (trypsin): remained almost entirely intact after 24 h
- Hemolysis [7]: less than 5%
- Cytotoxicity on human hepatocyte THLE-3 [8]: remarkable cytotoxicity
- In vivo safety in mice (C57BL/6 mice): favorable safety
- remaining at 4 h (in vitro): 20%

Structure (SMILES): CC(C)C[C@@H]1NC(=O)[C@@H]2CSSC[C@@H](C(N)=O)NC(=O)[C@@H](CCCCN)NC(=O)[C@H](CC(C)C)NC(=O)[C@@H](CCCCN)NC(=O)[C@H](CSSC[C@H](NC(=O)[C@@H](N)CC(C)C)C(=O)N2)NC(=O)[C@H](C)NC(=O)[C@@H](CCCCN)NC(=O)[C@H](CC(C)C)NC(=O)[C@@H](CCCCN)NC1=O [Pep 4] (H-LCCL[dK]L[dK]AC[dK]L[dK]C-NH2; disulfide 2-9, 3-13)
- MIC, C. tropical [3]: >64 µM
- MIC, C. parapsilosis [4]: >64 µM
- MIC, B. subtilis [5]: >64 µM
- MIC, E. coli [6]: >64 µM

Structure (SMILES): CC(C)C[C@@H]1NC(=O)[C@@H]2CSSC[C@@H](C(N)=O)NC(=O)[C@@H](CCCCN)NC(=O)[C@H](CC(C)C)NC(=O)[C@@H](CCCCN)NC(=O)[C@H](CC(C)C)NC(=O)[C@@H](CCCCN)NC(=O)[C@H](CSSC[C@H](NC(=O)[C@@H](N)CC(C)C)C(=O)N2)NC(=O)[C@@H](CCCCN)NC1=O [Pep 5] (H-LCCL[dK]C[dK]L[dK]L[dK]C-NH2; disulfide 2-6, 3-12)
- MIC, C. tropical [3]: 64 µM (≈ 89 µg/mL)
- MIC, C. parapsilosis [4]: 128 µM (≈ 178 µg/mL)
- MIC, B. subtilis [5]: 128 µM (≈ 178 µg/mL)
- MIC, E. coli [6]: 32 µM (≈ 44.5 µg/mL)
- Stability in SIF (trypsin): remained almost entirely intact after 24 h
- Hemolysis [7]: less than 5%
- remaining at 4 h (in vitro): 20%

Structure (SMILES): CC(C)C[C@@H]1NC(=O)[C@@H]2CSSC[C@@H](C(N)=O)NC(=O)[C@@H](CCCCN)NC(=O)[C@H](Cc3c[nH]c4ccccc34)NC(=O)[C@@H](CCCCN)NC(=O)[C@H](CSSC[C@H](NC(=O)[C@@H](N)CC(C)C)C(=O)N2)NC(=O)[C@@H](CCCCN)NC(=O)[C@H](CC(C)C)NC(=O)[C@@H](CCCCN)NC1=O [Pep 2] (H-LCCL[dK]L[dK]C[dK]W[dK]C-NH2; disulfide 2-8, 3-12)
- MIC, C. tropical [3]: >64 µM
- MIC, C. parapsilosis [4]: >64 µM
- MIC, B. subtilis [5]: >64 µM
- MIC, E. coli [6]: >64 µM

Structure (SMILES): CC(C)C[C@@H]1NC(=O)[C@@H]2CSSC[C@@H](C(N)=O)NC(=O)[C@@H](CCCCN)NC(=O)[C@H](Cc3ccc(O)cc3)NC(=O)[C@@H](CCCCN)NC(=O)[C@H](CSSC[C@H](NC(=O)CN)C(=O)N2)NC(=O)[C@@H](CCCCN)NC(=O)[C@H](CC(C)C)NC(=O)[C@@H](CCCCN)NC1=O [Pep 1] (H-GCCL[dK]L[dK]C[dK]Y[dK]C-NH2; disulfide 2-8, 3-12)
- MIC, C. tropical [3]: >64 µM
- MIC, C. parapsilosis [4]: >64 µM
- MIC, B. subtilis [5]: >64 µM
- MIC, E. coli [6]: >64 µM

Structure (SMILES): CC(C)C[C@@H]1NC(=O)[C@H](CCCCN)NC(=O)[C@@H]2CSSC[C@H](NC(=O)[C@H](CC(C)C)NC(=O)[C@H](CCCCN)NC(=O)[C@H](CCCCN)NC(=O)[C@@H](N)CC(C)C)C(=O)N[C@@H](CSSC[C@@H](C(N)=O)NC(=O)[C@H](CCCCN)NC1=O)C(=O)N[C@@H](CCCCN)C(=O)N2 [Pep 9] (H-LKKLCCKCKLKC-NH2; disulfide 5-8, 6-12)
- Effect on growth of Candida tropicalis (growth curve) (Candida tropicalis [1]): inhibitory effects
- Fungal counts after 60 min (Candida tropicalis [2]): 1 × 10^3 cfu/mL
- Reduction of fungal counts (Candida tropicalis [2]): over 1000 fold
- MIC, C. tropical [3]: 16 µM (≈ 22.5 µg/mL)
- MIC, C. parapsilosis [4]: 16 µM (≈ 22.5 µg/mL)
- MIC, B. subtilis [5]: 128 µM (≈ 180 µg/mL)
- MIC, E. coli [6]: >128 µM
- Stability in SIF (trypsin): nearly fully degraded within one hour
- Toxicity on human hepatocyte THLE-3 [8]: little or no toxicity

Structure (SMILES): CC(C)C[C@@H]1NC(=O)[C@@H](CCCCN)NC(=O)[C@@H]2CSSC[C@H](NC(=O)[C@H](CC(C)C)NC(=O)[C@@H](CCCCN)NC(=O)[C@@H](CCCCN)NC(=O)[C@@H](N)CC(C)C)C(=O)N[C@@H](CSSC[C@@H](C(N)=O)NC(=O)[C@@H](CCCCN)NC1=O)C(=O)N[C@H](CCCCN)C(=O)N2 [Pep 6] (H-L[dK][dK]LCC[dK]C[dK]L[dK]C-NH2; disulfide 5-8, 6-12)
- Effect on growth of Candida tropicalis (growth curve) (Candida tropicalis [1]): inhibitory effects
- Bactericidal effect on Candida tropicalis (Candida tropicalis [2]): significant bactericidal effect
- Fungal counts after 60 min (Candida tropicalis [2]): 1 × 10^3 cfu/mL
- Reduction of fungal counts (Candida tropicalis [2]): over 1000 fold
- MIC, C. tropical [3]: 8 µM (≈ 11.2 µg/mL)
- MIC, C. parapsilosis [4]: 32 µM (≈ 45 µg/mL)
- MIC, B. subtilis [5]: 64 µM (≈ 90 µg/mL)
- MIC, E. coli [6]: 128 µM (≈ 180 µg/mL)
- Stability in SIF (trypsin): remained almost entirely intact after 24 h
- Hemolysis [7]: less than 5%
- Toxicity on human hepatocyte THLE-3 [8]: little or no toxicity
- Body weight change (C57BL/6 mice; in vivo): no significant changes
- remaining at 4 h (in vitro): 20%

Structure (SMILES): CC(C)C[C@@H]1NC(=O)[C@@H]2CSSC[C@@H](C(N)=O)NC(=O)[C@@H](CCCCN)NC(=O)[C@H](CC(C)C)NC(=O)[C@@H](CCCCN)NC(=O)[C@H](CSSC[C@H](NC(=O)[C@@H](N)CC(C)C)C(=O)N2)NC(=O)[C@@H](CCCCN)NC(=O)[C@H](CC(C)C)NC(=O)[C@@H](CCCCN)NC1=O [Pep 3] (H-LCCL[dK]L[dK]C[dK]L[dK]C-NH2; disulfide 2-8, 3-12)
- MIC, C. tropical [3]: >64 µM
- MIC, C. parapsilosis [4]: >64 µM
- MIC, B. subtilis [5]: >64 µM
- MIC, E. coli [6]: >64 µM

Structure (SMILES): CC(C)C[C@@H]1NC(=O)[C@H](CCCCN)NC(=O)[C@H](CC(C)C)NC(=O)[C@H](CCCCN)NC(=O)[C@@H]2CSSC[C@H](NC(=O)[C@@H](N)CC(C)C)C(=O)N[C@@H](CSSC[C@@H](C(N)=O)NC(=O)[C@H](CCCCN)NC1=O)C(=O)N[C@@H](CC(C)C)C(=O)N[C@@H](CCCCN)C(=O)N2 [Pep 7] (H-LCCLKCKLKLKC-NH2; disulfide 2-6, 3-12)
- MIC, C. tropical [3]: 64 µM (≈ 89 µg/mL)
- MIC, C. parapsilosis [4]: 64 µM (≈ 89 µg/mL)
- MIC, B. subtilis [5]: 64 µM (≈ 89 µg/mL)
- MIC, E. coli [6]: >128 µM
- Stability in SIF (trypsin): nearly fully degraded within one hour
